“Also recorded” adds a separate entry of the source.

Common to all, as to assay type: in vivo
A short description of series [1]: cataleptic effect in rats (intraperitoneal). The following applies: for TD50 at 6 h: recorded every 30 minutes over 6 hours, read-out: ED50 (dose at which 50% of the animals are cataleptic). The procedure: The following compounds were tested:
The test animals are considered to be cataleptic when the homolateral extremities remain in the crossed position for at least 10 seconds. The number of cataleptic animals is recorded every 30 minutes over a 6-hour period.

A short description of series [2]: "Pole Climbing" Test, conditioned reaction and unconditioned reaction of rats. The following applies: for ED50: Rattus norvegicus, po, read-out: ED50 (Blocking of the conditioned reaction); for Quotient-ED10 (Blocking of the unconditioned reaction)/ED50 (Blocking of the conditioned reaction): higher quotient = stronger selectivity of the neuroleptic effect. The source says: The test provides information regarding the behavioral reactions of rats. Rats are trained to avoid an electrical stimulus (unconditioned stimulation) which is effected through a base grid a few seconds after an acoustical signal (conditioned stimulation) by climbing up a vertical rod in the test chamber. The blocking of the conditioned reaction is expressed by the parameter ED50 (mg/kg. p.o.), the blocking of the unconditioned reaction is expressed by the parameter ED10 (mg/kg. p.o.).

Series [3] can be described thus: Rotating Rod Test (coordinated motor performance of mice). The following applies: for ED50: Mus musculus, po, read-out: ED50 (dose which reduces the holding on period of the mice by 50%); for activity in the Rotating Rod Test (in words): compared with chlorpromazine. The method, then:
In the Rotating Rod Test, the ability of mice to achieve a coordinated motor performance is investigated. After peroral administration of the test substance, the mice are placed upon a horizontal slowly rotating rod and the time they remain […] the rod is recorded.

Series [4] deals with turnover of dopamine in the basal ganglions. The experiment in a line: Determination of Homovanillinic Acid (HVA) in rat brain. The following applies: rats; for Increase in HVA, %: two hours, titer in untreated rats set at 100%. The source says:
[…] Thereafter, the homovanillinic acid is extracted from the supernatant portion of a homogenized mixture of the brains of the treated rats into butyl acetate and later into an aqueous solution and is oxidized with potassium ferric cyanide to a fluorescent dimer. […] The homovanillinic acid titer in untreated rats is arbitrarily set at 100%.

The mark [5] stands for this setting: rat, in vivo, ip, rats, intraperitoneal.
The mark [6] stands for this setting: rats, intraperitoneal, as compared to chlorpromazine.

The term ED50 denotes the dose that gives a 50% effect, or the effect in half of the subjects. For the molecule `CN(C)CCCN1c2ccccc2Sc2ccc(Cl)cc21` [Chlorpromazine, chlorpromazine, reference compound], in series [1] (rat, in vivo, ip), the “cataleptic effect (in words)” value was “does demonstrate cataleptic effects”. In addition, the ED50 in series [2] was 11.6 mg/kg; in series [3] it was 5 mg/kg. The “Quotient-ED10 (Blocking of the unconditioned reaction)/ED50 (Blocking of the conditioned reaction)” value (“Quotient-ED10” for short) in series [2] (rats, p.o.) is reported as 3.5. The “Increase in HVA, %” value in series [4] (20 mg/kg p.o.) was 321%.

Consider `CN1CCN(C2Cc3cc(Cl)ccc3Sc3cc(F)ccc32)CC1.O=C(O)/C=C\C(=O)O` (stereo not drawn) [Product A, 1-(2-chloro-7-fluoro-10,11-dihydro-dibenzo[b,f]thiepin-10-yl)-4-methylpiperazine maleate], for which the TD50 at 6 h in series [1] (setting [5]) was 70 mg/kg. The “cataleptic effect (in words)” value in series [1] (setting [6]) is “only very weak cataleptic effect”. Further, in series [2] (rats, p.o.), the median effective dose (ED50) was found to be 30 mg/kg, the “quality (selectivity) of the neuroleptic activity relative to chlorpromazine (in words)” value is “about equal to that of chlorpromazine”, the “strength of the neuroleptic activity relative to chlorpromazine (in words)” value was “about half that of chlorpromazine” and the “Quotient-ED10” value turned out to be 3.3. For the same molecule, in series [3] (mice, peroral), the median effective dose (ED50) is 5.8 mg/kg. For the same molecule, the “activity in the Rotating Rod Test (in words)” value in series [3] (mice, peroral, maleate) is “strong activity; also recorded: activity approximates that of chlorpromazine”. In series [4], the “activity in the HVA test relative to chlorpromazine (in words)” value is reported as “nearly as potent as that of chlorpromazine”. The “Increase in HVA, %” value in series [4] (50 mg/kg p.o.) turned out to be 280%.

As to `O=C(O)/C=C\C(=O)O.OCCCN1CCN(C2Cc3cc(Cl)ccc3Sc3ccc(F)cc32)CC1` (stereo not drawn) [Product C, 4-(2-chloro-8-fluoro-10,11-dihydro-dibenzo[b,f]thiepin-10-yl)-1-piperazinepropanol maleate], the TD50 at 6 h in series [1] (setting [5]) is 64 mg/kg. For the same molecule, the “cataleptic effect (in words)” value in series [1] (setting [6]) is reported as “only very weak cataleptic effect”. Besides, the “activity in the HVA test relative to chlorpromazine (in words)” value in series [4] is given as “nearly as potent as that of chlorpromazine”. Further, the “Increase in HVA, %” value in series [4] (50 mg/kg p.o.) was determined as 273%.

In the case of `CN1CCN(C2Cc3ccc(Cl)cc3Sc3ccc(F)cc32)CC1.O=C(O)/C=C\C(=O)O` (stereo not drawn) [Product B, 1-(3-chloro-8-fluoro-10,11-dihydro-dibenzo[b,f]thiepin-10-yl)-4-methylpiperazine maleate], the TD50 at 6 h in series [1] (setting [5]) stood at 100 mg/kg. For the same molecule, the “cataleptic effect (in words)” value in series [1] (setting [6]) is on record as “only very weak cataleptic effect”. Further, in series [2] (rats, p.o.), the 50% effective dose (ED50) is 27 mg/kg, the “quality (selectivity) of the neuroleptic activity relative to chlorpromazine (in words)” value is recorded as “considerably superior to that of chlorpromazine”, the “strength of the neuroleptic activity relative to chlorpromazine (in words)” value is on record as “about half of that of chlorpromazine” and the “Quotient-ED10” value is listed as 11.0. In series [3] (mice, peroral), the ED50 stood at 3.1 mg/kg and the “activity in the Rotating Rod Test (in words)” value is “superior to chlorpromazine”.

These data come from patent US3966737A, “Fluoro-substituted dibenso[b,f] thiepins” (priority 1973, dated 1976).
